Key:
[1] = test system: inflammatory cells in the bronchial-alveolar liquid; assay type: in vivo, C57B1/6J mice; conditions: for Number PMNs in bronchial-alveolar liquid / Total number infl. cells in bronchial-alveolar liquid: substance alone, aerosol on day 0, 2 and 7, 24 h after final treatment (day 8), n=3
Description: (§1) On day 0, 2 and 7, two groups C75Bl/6J mice received 30 minutes' treatment with an aerosol (in an atomizing chamber as described in example 1) comprising (i) vehicle (phosphate-buffered physiological salt solution), (ii) N—AcPGP (0.4 mg/ml) or (iii) N—AcPGP (0.4 mg/ml) and 4-RTR (1 mg/ml). 30 minutes prior to the aerosol, the mice of group (i) and (ii) received intranasal vehicle and the mice of group (iii), 4RTR (1 mg/ml). […] (see Table III).

[2] = test system: PGP-induced PMN influx in the mouse lung; experiment: PGP-induced PMN influx in the mouse lung (lung-wash cell counts); assay type: in vivo, Balb/c mice; conditions: for Eos in lung-wash liquid / Monos in lung-wash liquid / Neutros in lung-wash liquid / Total cells in lung-wash liquid: PBS pre-treatment, atomization of the substance (10^-3 M, 30 min), 5 h after onset, ± SEM; for Influx of neutrophilic and eosinophilic granulocytes in the lungs: atomization of the substance
Description: Solutions were prepared of N—Ac-PGP (0.36 mg/ml; 10^−3 M) and N-methyl-PGP (0.32 mg/ml; 10^−3 M) in phosphate-buffered physiological salt (PBS). In an atomizing chamber, 6-8 weeks old Balb/c mice (groups of 4 mice) were subjected for 30 minutes to either N-acetyl-PGP or N-methyl-PGP. Control mice only received PBS. One hour prior to subjection in the atomizing chamber and one hour after the start of subjection each mouse received 50 μl of 1 mg/ml 4RTR. The treatment is outlined in the Table I below.
5 Hours after the onset of subjection the mice were sacrificed by administering an overdose of Nembutal. After the application of a tracheal canula the lungs were washed with 4 ml PBS. The lung-wash liquid was centrifuged (5 min.; 4° C.; 580 g) and the cell pellet was taken up in 150 μl PBS. The cells were counted under the microscope. To distinguish between neutrophilic and eosinophilic granulocytes and mononuclear cells (haematoxylin/eosin dye, H/E dye: Diff-Quick, Merz & Dade, A. G. Dübingen, Switzerland), the cytospin technique was applied (Buckley, T. L. and Nijkamp, F. P., “Airways hyperreactivity and cellular accumulation in a delayed-type hypersensitivity reaction in the mouse: modulation by capsaicin-sensitive nerves”. Am. J. Respir. Crit. Care Med. 149: 400-407 (1994)).

[3] = test system: alveolar dilatation (lung emphysema); experiment: Lung emphysema induced by N-AcPGP: mean linear intercept (Lm); assay type: in vivo, C75Bl/6J mice; conditions: N-AcPGP aerosol day 0, 2, 7; lungs on day 21; FIG. 1
Description: as §1
On day 21 the mice of the second group (which on day 0, 2, and 7 were treated in the same manner as the mice of the first group), were sacrificed by means of an overdose of anaesthetic (Nembutal) and the lungs were isolated and fixed by filling the lungs with Carnoy's fixative under a liquid pressure of 25 cm. The lungs were prepared for histological analysis. The mean linear intercept (Lm), indicative for alveolar dilatation, was calculated by placing a grid over the illustrations of 5 separate fields (300× magnification) per mouse lung. The total length of the lines was divided by the number of intercepts, resulting in the Lm, providing a measure for the average size of the bronchial volume of the lung.

Substance | Number PMNs in bronchial-alveolar liquid [1] | Total number infl. cells in bronchial-alveolar liquid [1] | Eos in lung-wash liquid [2] | Monos in lung-wash liquid [2] | Neutros in lung-wash liquid [2] | Total cells in lung-wash liquid [2] | Influx of neutrophilic and eosinophilic granulocytes in the lungs [2] | Increase of the total number of inflammatory cells in the bronchial-alveolar washing liquid in comparison with the vehicle control ([1]; N-AcPGP 0.4 mg/ml aerosol day 0, 2, 7, day 8) [fold] | Mean linear intercept (Lm), indicative for alveolar dilatation [3]
FMLP | 10.7± 3 ×10^5 | 61 ± 5 ×10^5 | – | – | – | – | – | – | –
N-acetyl-Pro-Gly-Pro [N-AcPGP] | 11.7 ± 0.8 ×10^5 | 55 ± 1 ×10^5 | 1.1 ± 0.6 ×10^4 cells/ml | 28.3 ± 8.6 ×10^4 cells/ml | 20.1 ± 7.5 ×10^4 cells/ml | 49.5 ± 3.1 ×10^4 cells/ml | results in the influx of neutrophilic and eosinophilic granulocytes in the lungs | 2 | significant increase
N-methyl-Pro-Gly-Pro [N-methylPGP] | – | – | 0.2 ± 0.1 ×10^4 cells/ml | 33.9 ± 3.4 ×10^4 cells/ml | 11.9 ± 3.6 ×10^4 cells/ml | 46.1 ± 3.2 ×10^4 cells/ml | results in the influx of neutrophilic and eosinophilic granulocytes in the lungs | – | –

Source: patent US7410806B2, “Compound for inhibiting the influx of polymorphonuclear leukocytes (PMNs) in a tissue, its selection, pharmaceutical compositions and use” (Fornix Biosciences N.V., priority 1999, dated 2008)
